{"source": "patent US6239171A", "about": "“Tocotrienols and tocotrienol-like compounds and methods for their use” (Lipogenics, Inc., priority 1998, dated 2001)", "key": {"[1]": {"tested_on": "hypercholesterolemic swine", "experiment": "Serum cholesterol, apolipoproteins, triglycerides, glucose, insulin and glucagon in hypercholesterolemic swine", "format": "in vivo", "description": "All assays conducted on chicken or swine serum were done following the protocols described in A. A. Qureshi et al., \"Lowering Of Serum Cholesterol In Hypercholesterolemic Humans By Tocotrienols\" (Palmvitee), Am. […] Plasma insulin, glucagon and TNF levels were measured using radioinnumoassay kits from Ventrex Laboratories, Inc. (Portland, Me.), ICN Biomedicals, Inc. (Costa Mesa, Calif.) and Genzyme Corp. (Cambridge, Mass.), respectively.\nWe next measured the effects of various tocotrienols from rice bran on HMG-CoA reductase and cholesterol 7α-hydroxylase in hypercholesterolemic swine. Since pigs are very similar to humans in their cholesterol metabolism, they provide a useful model from which to study hypercholesterolemia and related diseases. […] As a result, the pigs develop complicated atherosclerotic plaques that closely resemble advanced atherosclerotic lesions found in humans.\nEach group of three 5-month old swine was administered either a control diet or a control diet supplemented with 50 ppm of TRF or 50 ppm of an individual tocotrienol. […] After a 12 hour fast, serum and plasma samples were taken a 0 hrs, 21 days and 42 days from the start of the feeding period. After taking serum and plasma samples from the pigs at the end of the 42 day period, all of the swine were fasted for a total of 40 hours, followed by a 48 hour refeeding period. One swine from each group was sacrificed at that time and the liver, intestine, lung, heart, loin muscle, adipose tissue and ham muscle were removed.\nThe experimental conditions were the same, except that the two remaining swine in each group were transferred to the unsupplemented control diet following the 42 day feeding period. After an additional 70 days, serum and plasma samples were collected from these swine after a 12 hour fast for testing."}, "[2]": {"tested_on": "cholesterol 7α-hydroxylase", "experiment": "Hepatic cholesterol 7α-hydroxylase activity in chickens fed supplemented diets", "format": "in vivo, chicken", "conditions": "control diet + 50 ppm, 4 weeks", "quoted_text": "(§1) This example measured the effects of the TRF and its components on the hepatic enzymatic activity of HMG-CoA reductase and cholesterol 7α-hydroxylase. […] The amount of feed consumed ranged from 11.19-11.60 g per chicken and the feeding period was 4 weeks. The birds were fasted for a period of 36 hours and refed for 48 hours prior to sacrifice (at 0800 hours)."}, "chickens": {"tested_on": "chickens", "experiment": "Plasma thromboxane B2 and platelet factor 4 in chickens fed supplemented diets", "format": "in vivo, chicken", "conditions": "control diet + 50 ppm, 4 weeks", "excerpt": "We next measured the effects of TRF and its components on serum levels of apolipoprotein (a)1, apolipoprotein B, triglycerides and glucose and the plasma levels of thromboxane B2 and platelet factor 4."}, "HMG-CoA reductase": {"target": "T1, HMG-CoA reductase (Homo sapiens, UniProt P04035)", "T1 construct": "hepatocytes isolated from livers of 8-week old female chickens; endogenous in cells; host or cells: primary chicken hepatocytes", "T1 sequence (P04035 1-888)": "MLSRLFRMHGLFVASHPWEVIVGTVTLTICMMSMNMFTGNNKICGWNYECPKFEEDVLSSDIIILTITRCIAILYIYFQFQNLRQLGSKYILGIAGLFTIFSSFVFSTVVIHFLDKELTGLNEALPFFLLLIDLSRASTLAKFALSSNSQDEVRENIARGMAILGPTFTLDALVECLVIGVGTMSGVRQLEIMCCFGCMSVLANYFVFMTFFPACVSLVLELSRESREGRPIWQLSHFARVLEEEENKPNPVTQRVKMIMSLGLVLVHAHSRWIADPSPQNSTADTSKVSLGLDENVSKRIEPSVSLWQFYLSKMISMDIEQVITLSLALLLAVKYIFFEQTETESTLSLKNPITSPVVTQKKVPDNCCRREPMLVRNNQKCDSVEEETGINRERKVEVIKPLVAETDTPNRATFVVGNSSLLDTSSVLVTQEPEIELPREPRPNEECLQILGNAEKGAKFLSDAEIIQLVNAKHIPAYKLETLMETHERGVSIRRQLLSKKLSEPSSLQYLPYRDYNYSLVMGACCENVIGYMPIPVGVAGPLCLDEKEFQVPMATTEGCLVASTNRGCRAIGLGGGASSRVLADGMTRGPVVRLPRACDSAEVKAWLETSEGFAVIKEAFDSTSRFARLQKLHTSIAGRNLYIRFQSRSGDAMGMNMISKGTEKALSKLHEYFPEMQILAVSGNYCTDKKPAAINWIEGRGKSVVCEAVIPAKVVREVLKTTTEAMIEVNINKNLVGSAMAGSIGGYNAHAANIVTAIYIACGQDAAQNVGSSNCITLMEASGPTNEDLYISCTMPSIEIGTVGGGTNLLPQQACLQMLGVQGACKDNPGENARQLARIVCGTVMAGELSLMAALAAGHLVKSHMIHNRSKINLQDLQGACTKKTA", "experiment": "Hepatic HMG-CoA reductase activity in chickens fed supplemented diets", "format": "in vivo, chicken", "conditions": "control diet + 50 ppm, 4 weeks", "quoted_text": "as §1"}, "[3]": {"conditions": "70 days on control diet after 42 days at 50 ppm"}}, "data": [{"smiles": "CC(C)=CCC/C(C)=C/CC/C(C)=C/CCC1(C)CCc2cc(O)c(C)c(C)c2O1", "note": "(centres unmarked) [γ-T3, γ-tocotrienol, reference compound]", "values": [{"measurement": "HDL-CHOLESTEROL CONCENTRATION IN SERUM", "setting": "[1]; [3]", "result": 30.47, "unit": "mg/100 ml"}, {"measurement": "HDL-CHOLESTEROL, Percentage of Control Activity", "setting": "[1]; [3]", "result": 106.66, "unit": "%"}, {"measurement": "HDL-CHOLESTEROL, percentage of baseline value", "setting": "[1]; [3]", "result": 139.39, "unit": "%"}, {"measurement": "HDL:LDL CHOLESTEROL, Percentage of Control Activity", "setting": "[1]; [3]", "result": 84.52, "unit": "%"}, {"measurement": "LDL-CHOLESTEROL CONCENTRATION IN SERUM", "setting": "[1]; [3]", "result": 224.66, "unit": "mg/100 ml"}, {"measurement": "LDL-CHOLESTEROL, Percentage of Control Activity", "setting": "[1]; [3]", "result": 88.61, "unit": "%"}, {"measurement": "LDL-CHOLESTEROL, percentage of baseline value", "setting": "[1]; [3]", "result": 125.95, "unit": "%"}, {"measurement": "TOTAL CHOLESTEROL CONCENTRATION IN SERUM", "setting": "[1]; [3]", "result": 271.70, "unit": "mg/100 ml"}, {"measurement": "TOTAL CHOLESTEROL, Percentage of Control Activity", "setting": "[1]; [3]", "result": 78.80, "unit": "%"}, {"measurement": "TOTAL CHOLESTEROL, percentage of baseline value", "setting": "[1]; [3]", "result": 129.66, "unit": "%"}, {"measurement": "Apo A1, percentage of control", "setting": "[1]; control diet + 50 ppm, 6 weeks", "result": 102.06, "unit": "%"}, {"measurement": "Apo A1 concentration in serum", "setting": "[1]; control diet + 50 ppm, 6 weeks", "result": "26.22 ± 1.11", "unit": "mg/100 ml"}, {"measurement": "Apo B concentration in serum", "setting": "[1]; control diet + 50 ppm, 6 weeks", "result": "114.29 ± 1.79", "unit": "mg/100 ml"}, {"measurement": "Apo B, percentage of control", "setting": "[1]; control diet + 50 ppm, 6 weeks", "result": 77.34, "unit": "%"}, {"measurement": "Triglycerides concentration in serum", "setting": "[1]; control diet + 50 ppm, 6 weeks", "result": 61.78, "unit": "mg/100 ml"}, {"measurement": "Triglycerides, percentage of control", "setting": "[1]; control diet + 50 ppm, 6 weeks", "result": 80.69, "unit": "%"}, {"measurement": "HDL-CHOLESTEROL CONCENTRATION IN SERUM", "setting": "[1]; control diet + 50 ppm, 21 days", "result": 25.27, "unit": "mg/100 ml"}, {"measurement": "HDL-CHOLESTEROL, percentage of baseline value", "setting": "[1]; control diet + 50 ppm, 21 days", "result": 115.59, "unit": "%"}, {"measurement": "HDL:LDL CHOLESTEROL, percentage of baseline value", "setting": "[1]; control diet + 50 ppm, 21 days", "result": 89.83, "unit": "%"}, {"measurement": "LDL-CHOLESTEROL CONCENTRATION IN SERUM", "setting": "[1]; control diet + 50 ppm, 21 days", "result": 185.12, "unit": "mg/100 ml"}, {"measurement": "LDL-CHOLESTEROL, percentage of baseline value", "setting": "[1]; control diet + 50 ppm, 21 days", "result": 103.78, "unit": "%"}, {"measurement": "TOTAL CHOLESTEROL CONCENTRATION IN SERUM", "setting": "[1]; control diet + 50 ppm, 21 days", "result": 225.20, "unit": "mg/100 ml"}, {"measurement": "TOTAL CHOLESTEROL, percentage of baseline value", "setting": "[1]; control diet + 50 ppm, 21 days", "result": 107.39, "unit": "%"}, {"measurement": "Glucagon", "setting": "[1]; control diet + 50 ppm, 42 days", "result": 285.41, "unit": "pg/mL"}, {"measurement": "Glucagon, percentage of control", "setting": "[1]; control diet + 50 ppm, 42 days", "result": 86.38, "unit": "%"}, {"measurement": "Glucose", "setting": "[1]; control diet + 50 ppm, 42 days", "result": 74.40, "unit": "mg/100 ml"}, {"measurement": "Glucose, percentage of control", "setting": "[1]; control diet + 50 ppm, 42 days", "result": 77.51, "unit": "%"}, {"measurement": "HDL-CHOLESTEROL CONCENTRATION IN SERUM", "setting": "[1]; control diet + 50 ppm, 42 days", "result": 28.55, "unit": "mg/100 ml"}, {"measurement": "HDL-CHOLESTEROL, Percentage of Control Activity", "setting": "[1]; control diet + 50 ppm, 42 days", "result": 111.06, "unit": "%"}, {"measurement": "HDL-CHOLESTEROL, percentage of baseline value", "setting": "[1]; control diet + 50 ppm, 42 days", "result": 130.60, "unit": "%"}, {"measurement": "HDL:LDL CHOLESTEROL, Percentage of Control Activity", "setting": "[1]; control diet + 50 ppm, 42 days", "result": 60.58, "unit": "%"}, {"measurement": "HDL:LDL CHOLESTEROL, percentage of baseline value", "setting": "[1]; control diet + 50 ppm, 42 days", "result": 82.84, "unit": "%"}, {"measurement": "Insulin", "setting": "[1]; control diet + 50 ppm, 42 days", "result": 21.2, "unit": "µU/mL"}, {"measurement": "Insulin, percentage of control", "setting": "[1]; control diet + 50 ppm, 42 days", "result": 103.46, "unit": "%"}, {"measurement": "LDL-CHOLESTEROL CONCENTRATION IN SERUM", "setting": "[1]; control diet + 50 ppm, 42 days", "result": 193.80, "unit": "mg/100 ml"}, {"measurement": "LDL-CHOLESTEROL, Percentage of Control Activity", "setting": "[1]; control diet + 50 ppm, 42 days", "result": 66.22, "unit": "%"}, {"measurement": "LDL-CHOLESTEROL, percentage of baseline value", "setting": "[1]; control diet + 50 ppm, 42 days", "result": 108.65, "unit": "%"}, {"measurement": "TOTAL CHOLESTEROL CONCENTRATION IN SERUM", "setting": "[1]; control diet + 50 ppm, 42 days", "result": 233.93, "unit": "mg/100 ml"}, {"measurement": "TOTAL CHOLESTEROL, Percentage of Control Activity", "setting": "[1]; control diet + 50 ppm, 42 days", "result": 71.00, "unit": "%"}, {"measurement": "TOTAL CHOLESTEROL, percentage of baseline value", "setting": "[1]; control diet + 50 ppm, 42 days", "result": 111.76, "unit": "%"}, {"measurement": "Cholesterol 7α-Hydroxylase, percentage of control", "setting": "[2]", "result": 107.34, "unit": "%"}, {"measurement": "Cholesterol 7α-hydroxylase", "setting": "[2]", "result": 10.97, "unit": "nmol/min/mg"}, {"measurement": "Platelet Factor 4", "setting": "chickens", "result": 8.36, "unit": "ng/mL"}, {"measurement": "Platelet Factor 4, percentage of control", "setting": "chickens", "result": 63.87, "unit": "%"}, {"measurement": "Thromboxane B2", "setting": "chickens", "result": 19.22, "unit": "pg/mL"}, {"measurement": "Thromboxane B2, percentage of control", "setting": "chickens", "result": 74.38, "unit": "%"}, {"measurement": "HMG-CoA Reductase, percentage of control", "setting": "HMG-CoA reductase", "result": 78.32, "unit": "%"}]}]}
